{
  "source": "patent US9918968B2",
  "about": "“Rapamycin analogs targeting proteasome function in the treatment of cancer” (THE BOARD OF REGENTS OF THE UNIVERSITY OF TEXAS SYSTEM, priority 2013, dated 2018)",
  "key": {"[1]": {"target": "T1, human 20S proteasome, ChT-L peptidase", "T1 construct": "purchased Enzo LifeSciences", "experiment": "ChT-L peptidase activity of purified human 20S proteasome (Suc-LLVY-MCA)", "assay_type": "biochemical", "settings": "latent human 20S proteasome", "experimental": "Human purified proteasome complexes were purchased from Enzo LifeSciences or Boston Biochemicals (19S complex). BODIPY-casein (Invitrogen/Molecular Probes) was used as a model protein substrate, with increasing fluorescence of BODIPY labeled peptide products of degradation monitored for up to 8 hours at 37° C. The peptidase activity of the enzyme was measured as arbitrary intensity units of the released fluorescent group 7-amino-4-methylcoumarin (AMC) from peptide substrates, as described. […] Proteasome substrates, rapamycin, its derivatives, and competing peptides were stocked in DMSO and diluted 100-fold in the reaction mixtures. The Rpt5 and PA200 C-terminal peptides were synthesized in the Departmental Peptide Synthesis Core using the standard SPPS chemistry. To activate the latent 20S proteasome, 0.005% (final concentration) of sodium dodecyl sulfate (SDS) was used. […] The fluorescence of products was monitored every 2 minutes with a Fluoroskan Ascent plate reader. Reaction rates were calculated from smoothed linear segment of kinetic curves using OriginPro 8.6 (OriginLabs, Northampton, Mass.). For the determination of an inhibition type, at least six distinct substrate concentrations and two inhibitor concentrations were used. The kinetic parameters of inhibition were analyzed in terms of the Michaelis-Menten formalism using the enzyme kinetic module of SigmaPlot v.12 (Systat Software, Inc, San Jose, Calif.) to perform the respective calculations. […]\nThe in vitro assay for testing the ChT-L peptidase activity of the purified human 20S proteasome was performed as described above."}, "[2]": {"test_system": "T2, human 20S proteasome, T-L peptidase", "T2 construct": "purchased Enzo LifeSciences", "experiment": "T-L peptidase activity of purified human 20S proteasome (BocLRR-MCA)", "assay_type": "biochemical", "experimental": "Human purified proteasome complexes were purchased from Enzo LifeSciences or Boston Biochemicals (19S complex). BODIPY-casein (Invitrogen/Molecular Probes) was used as a model protein substrate, with increasing fluorescence of BODIPY labeled peptide products of degradation monitored for up to 8 hours at 37° C. The peptidase activity of the enzyme was measured as arbitrary intensity units of the released fluorescent group 7-amino-4-methylcoumarin (AMC) from peptide substrates, as described. The common substrates specific for the three kinds of active sites: succinyl-LeuLeuValTyr-7-amido-4-methylcoumarin (Suc-LLVY-MCA; for the ChT-L activity; Bachem), butoxycarbonyl-LeuArgArg-MCA (BocLRR-MCA; for T-L; Bachem) and carbobenzoxy-LeuLeuGlu-MCA (CbzLLE-MCA; for PGPH; Enzo Life Sciences International, Inc.) were used at 100 μM final concentrations, unless stated otherwise (Gaczynska and Osmulski, 2005). Proteasome substrates, rapamycin, its derivatives, and competing peptides were stocked in DMSO and diluted 100-fold in the reaction mixtures. The Rpt5 and PA200 C-terminal peptides were synthesized in the Departmental Peptide Synthesis Core using the standard SPPS chemistry. To activate the latent 20S proteasome, 0.005% (final concentration) of sodium dodecyl sulfate (SDS) was used. The reactions were carried out in 96 well plates, with 2.3 nM proteasome and other components as indicated dissolved in 50 mM Tris-HCl buffer (pH 8.0) and incubated at 37° C. for up to 1 hour. The fluorescence of products was monitored every 2 minutes with a Fluoroskan Ascent plate reader. Reaction rates were calculated from smoothed linear segment of kinetic curves using OriginPro 8.6 (OriginLabs, Northampton, Mass.). For the determination of an inhibition type, at least six distinct substrate concentrations and two inhibitor concentrations were used. The kinetic parameters of inhibition were analyzed in terms of the Michaelis-Menten formalism using the enzyme kinetic module of SigmaPlot v.12 (Systat Software, Inc, San Jose, Calif.) to perform the respective calculations.\nIC50 values (a drug concentration causing 50% inhibition of the indicated enzymatic activity) were calculated for ChT-L and PGPH peptidases. Kd (dissociation constant) and Bmax (maximal activation effect achieved; in % above the control activity) values were calculated for the T-L peptidase. Mean±SD from n=2 or 3 experiments, or data from representative experiments set in duplicates or triplicates, are presented in the table. All three peptidase activities changed by no more than ±20%, without a concentration-dependent trend, upon treatment with up to 10 μM of rapamycin unrelated mTOR inhibitors PI-103 or NVP-BEZ235, in two independent experiments."}, "RPMI 8226 myeloma cells": {"test_system": "RPMI 8226 myeloma cells", "experiment": "Live/dead cell count, RPMI 8226 myeloma cells", "assay_type": "cell-based, human", "settings": "48 hrs", "experimental": "(§1) Culture Collection; ATCC) were cultured according to ATCC specifications: HeLa.S3 cervical adenocarcinoma, MCF7 breast adenocarcinoma, MDA-MB-231 breast adenocarcinoma (representing triple negative breast cancer), and RPMI 8226 myeloma. The cells were grown in 24 or 12-well cell culture plates. When the cells reached about 60% confluency (surface-growing HeLa.S3,MCF7 and MDA-MB-231) or a density of about 7×10^5 (suspension-growing RPMI 8226), the inhibitors dissolved in DMSO or the solvent (DMSO) diluted in respective culture medium were added and the cells were further cultured for additional 48 hours. […] The final concentration of the solvent was 1% (vol/vol). The number of live and dead cells after the treatment was approximated with calcein AM and ethidium homodimer (LiveDead test, Invitrogen) according to manufacturer's protocol, or by a Trypan Blue exclusion assay. In short, the cells after the treatment were washed three times with PBS and overlaid (surface-growing) or mixed (suspension-growing) with 4 microM calcein AM and 2 microM ethidium homodimer in PBS. Fluorescence of calcein and DNA-bound ethidium homodimer was measured with Fluoroskan Ascent plate reader, at 485 nm (excitation)/538 nm (emission) and 530 nm/619 nm, respectively. The cell counts were approximated using standard curves of live and digitonin-killed cells prepared for each strain. Alternatively, after cell treatment the medium was removed, the surface growing cells were overlaid with Trypan Blue solution, and the colorless (live) and blue-colored (dead) cells were counted under the inverted microscope."}, "[3]": {"test_system": "HeLa.S3 cervical carcinoma cells", "experiment": "Live/dead cell count, HeLa.S3 cells", "assay_type": "cell-based, human", "settings": "up to 500 nM, 48 hrs", "experimental": "as §1"}, "[4]": {"test_system": "MDA-MB-231 (triple-negative breast cancer) cells", "experiment": "Viability/growth of MDA-MB-231 cells", "assay_type": "cell-based, human", "experimental": "The cells were grown in 24 or 12-well cell culture plates. […] The final concentration of the solvent was 1% (vol/vol). The number of live and dead cells after the treatment was approximated with calcein AM and ethidium homodimer (LiveDead test, Invitrogen) according to manufacturer's protocol, or by a Trypan Blue exclusion assay. In short, the cells after the treatment were washed three times with PBS and overlaid (surface-growing) or mixed (suspension-growing) with 4 microM calcein AM and 2 microM ethidium homodimer in PBS. […] The cell counts were approximated using standard curves of live and digitonin-killed cells prepared for each strain. Alternatively, after cell treatment the medium was removed, the surface growing cells were overlaid with Trypan Blue solution, and the colorless (live) and blue-colored (dead) cells were counted under the inverted microscope."}, "mTOR": {"target": "mTOR (Homo sapiens, UniProt P42345+P62942)", "settings": "cited from earlier work"}},
  "data": [
    {"compound": "CO[C@@H](C[C@@H]1CC[C@@H](C)[C@](O)(C(=O)C(=O)N2CCCC[C@H]2C(=O)[O-])O1)/C(C)=C/C=C/C=C/[C@@H](C)C[C@@H](C)C(=O)[C@H](OC)[C@H](O)/C(C)=C/[C@@H](C)C(=O)/C=C/[C@H](C)C[C@@H]1CC[C@@H](O)[C@H](OC)C1.[Na+]", "note": "[seco-rapamycin]", "values": [
      {"measurement": "IC50", "setting": "[1]", "value": "> 20", "unit": "µM"},
      {"measurement": "activation of post-basic (T-L) cleavages", "setting": "[2]; 5 μM", "value": "~2", "unit": "fold"},
      {"measurement": "Kd", "setting": "[2]; activation of T-L peptidase", "value": 5.33, "unit": "µM"},
      {"measurement": "Bmax [%]: T-L", "setting": "[2]; maximal activation effect, % above the control activity", "value": 77, "unit": "%"},
      {"measurement": "drop in the live cell count", "setting": "RPMI 8226 myeloma cells; 100 nM", "value": 50, "unit": "%"},
      {"measurement": "cells alive", "setting": "RPMI 8226 myeloma cells; 200 nM", "value": "only one-third of the control cells alive"},
      {"measurement": "cytotoxicity", "setting": "[3]", "value": "did not reveal cytotoxicity"},
      {"measurement": "EC50", "setting": "[4]; 24 hours, drug alone, read-out: EC50 (concentration required to exclude 50% of cells)", "value": 869, "unit": "nM"},
      {"measurement": "growth of MDA-MB-231 cells", "setting": "[4]; seco-rapamycin alone", "value": "attenuated growth"},
      {"measurement": "effect on mTOR function", "setting": "mTOR", "value": "not to affect the mTOR function"}
    ]}
  ]
}
